From patent US4056626A, “Pharmaceutical composition containing benzofuran derivative” (Kakenyaku Kako Co., Ltd., priority 1971, dated 1977)

System: not listed separately
Assay: in vivo
Details: mouse, iv

Row | Structure (SMILES) | LD50 at 24 h
1 | CC(=NC(C)C)c1cc2cccc(OCC(O)CNC(C)C)c2o1 (stereo not shown) [Compound No. 1, 2-(1-isopropyliminoethyl)-7-(2-hydroxy-3-isopropylaminopropoxy)benzofuran] | 65000 to 70000 µg/kg
2 | CCc1cc2c(C(C)=O)ccc(OCC(O)CNC(C)C)c2o1 (stereo not shown) [Compound No. 8, 2-ethyl-4-acetyl-7-(2-hydroxy-3-isopropylaminopropoxy)benzofuran] | 120000 to 125000 µg/kg
3 | CCC(C)N=C(C)c1cc2cccc(OCC(O)CNC(C)CC)c2o1 (stereo not shown) [Compound No. 9, 2-(1-sec.-butyliminoethyl)-7-(2-hydroxy-3-sec.-butylaminopropoxy)benzofuran] | 75000 to 80000 µg/kg
4 | CC(=O)c1cc2c(OCC(O)CNC(C)(C)C)cccc2o1 (stereo not shown) [Compound No. 2, 2-acetyl-4-(2-hydroxy-3-tert.-butylaminopropoxy)benzofuran] | 35000 to 40000 µg/kg
5 | CC(=O)c1cc2cccc(OCC(O)CNC(C)(C)C)c2o1 (stereo not shown) [Compound No. 4, 2-acetyl-7-(2-hydroxy-3-tert.-butylaminopropoxy)benzofuran] | 45000 to 55000 µg/kg

System: isoproterenol antagonism concerning myocardial contractile force and heart rate in isolated guinea-pig atria
Assay: isoproterenol antagonism in isolated guinea-pig atria
Details: 37° C., isoproterenol 1 × 10^-8 g./ml., 50% inhibition
Experimental: Isolated guinea-pig atrium was mounted in a chamber containing Ringer-Lockesolution (37° C.), through which a mixed gas of 95% O2 and 5% CO2 was continuously bubbled. Isoproterenol was added to the solution at a concentration of 1 × 10^-^8 g./ml.

Row | Structure (SMILES) | Inhibition of increase in heart rate ED 50 | Inhibition of increase in myocardial contractile force ED 50
6 | CC(=NC(C)C)c1cc2cccc(OCC(O)CNC(C)C)c2o1 (stereo not shown) [Compound No. 1, 2-(1-isopropyliminoethyl)-7-(2-hydroxy-3-isopropylaminopropoxy)benzofuran] | 0.014 µg/mL | 0.0017 µg/mL
7 | CCc1cc2c(C(C)=O)ccc(OCC(O)CNC(C)C)c2o1 (stereo not shown) [Compound No. 8, 2-ethyl-4-acetyl-7-(2-hydroxy-3-isopropylaminopropoxy)benzofuran] | 0.053 µg/mL | 0.0091 µg/mL
8 | CCC(C)N=C(C)c1cc2cccc(OCC(O)CNC(C)CC)c2o1 (stereo not shown) [Compound No. 9, 2-(1-sec.-butyliminoethyl)-7-(2-hydroxy-3-sec.-butylaminopropoxy)benzofuran] | 0.06 µg/mL | 0.004 µg/mL
9 | CC(=O)c1cc2c(OCC(O)CNC(C)(C)C)cccc2o1 (stereo not shown) [Compound No. 2, 2-acetyl-4-(2-hydroxy-3-tert.-butylaminopropoxy)benzofuran] | 0.045 µg/mL | 0.017 µg/mL
10 | CC(=O)c1cc2cccc(OCC(O)CNC(C)(C)C)c2o1 (stereo not shown) [Compound No. 4, 2-acetyl-7-(2-hydroxy-3-tert.-butylaminopropoxy)benzofuran] | 0.033 µg/mL | 0.004 µg/mL

Same assay, conditions: activity of Propranolol is 1

Row | Structure (SMILES) | Inhibition of increase in heart rate, relative activity | Inhibition of increase in myocardial contractile force, relative activity
11 | CC(=NC(C)C)c1cc2cccc(OCC(O)CNC(C)C)c2o1 (stereo not shown) [Compound No. 1, 2-(1-isopropyliminoethyl)-7-(2-hydroxy-3-isopropylaminopropoxy)benzofuran] | 7.1 | 5.9
12 | CCc1cc2c(C(C)=O)ccc(OCC(O)CNC(C)C)c2o1 (stereo not shown) [Compound No. 8, 2-ethyl-4-acetyl-7-(2-hydroxy-3-isopropylaminopropoxy)benzofuran] | 1.9 | 1.1
13 | CCC(C)N=C(C)c1cc2cccc(OCC(O)CNC(C)CC)c2o1 (stereo not shown) [Compound No. 9, 2-(1-sec.-butyliminoethyl)-7-(2-hydroxy-3-sec.-butylaminopropoxy)benzofuran] | 1.6 | 2.5
14 | CC(=O)c1cc2c(OCC(O)CNC(C)(C)C)cccc2o1 (stereo not shown) [Compound No. 2, 2-acetyl-4-(2-hydroxy-3-tert.-butylaminopropoxy)benzofuran] | 2.2 | 0.6
15 | CC(=O)c1cc2cccc(OCC(O)CNC(C)(C)C)c2o1 (stereo not shown) [Compound No. 4, 2-acetyl-7-(2-hydroxy-3-tert.-butylaminopropoxy)benzofuran] | 3.0 | 2.5

System: isoproterenol antagonism concerning myocardial contractile force, heart rate and diastolic blood pressure
Assay: isoproterenol antagonism in anesthetized dogs
Assay type: in vivo
Details: Canis lupus familiaris, iv, read-out: Inhibition of decrease in diastolic blood pressure ED50
Experimental: Male and female dogs weighing 9 kg. to 20 kg. were employed. The dogs were anesthetized with barbital sodium (30 mg./kg.) given intraperitoneally. The compounds to be tested and isoproterenol were administered in femoral vein through a canula.
The maximum increase was adopted as the increase in myocardial contractile force. The increase after 1 minute from the administration of isoproterenol was adopted as the increase in heart rate. The maximum decrease was adopted as the decrease in diastolic blood pressure. Then, the compounds to be tested were administered in a dose of 0.01 to 100 μg./kg. After an interval of 2 minutes, isoproterenol was again administered in a dose of 0.3 μg./kg. After the second administration of isoproterenol, the maximum increase in myocardial contractile force, the increase after 1 minute from the administration of isoproterenol in heart rate and the maximum decrease in diastolic blood pressure were again determined.

Row | Structure (SMILES) | ED50
16 | CC(C)NCC(O)COc1cccc2ccccc12 (stereo not shown) [Propranolol, reference compound] | 0.94 µg/kg

Same assay, conditions: Canis lupus familiaris, iv, read-out: Inhibition of increase in heart rate ED50

Row | Structure (SMILES) | ED50
17 | CC(C)NCC(O)COc1cccc2ccccc12 (stereo not shown) [Propranolol, reference compound] | 10.6 µg/kg

Same assay, conditions: Canis lupus familiaris, iv, read-out: Inhibition of increase in myocardial contractile force ED50

Row | Structure (SMILES) | ED50
18 | CC(C)NCC(O)COc1cccc2ccccc12 (stereo not shown) [Propranolol, reference compound] | 9.5 µg/kg

Same assay, conditions: Canis lupus familiaris, iv; anesthetized dogs, femoral vein, isoproterenol 0.3 μg./kg., 50% inhibition; read-out: Inhibition of decrease in diastolic blood pressure ED50

Row | Structure (SMILES) | ED50
19 | CC(=NC(C)C)c1cc2cccc(OCC(O)CNC(C)C)c2o1 (stereo not shown) [Compound No. 1, 2-(1-isopropyliminoethyl)-7-(2-hydroxy-3-isopropylaminopropoxy)benzofuran] | 0.3 µg/kg
20 | CCc1cc2c(C(C)=O)ccc(OCC(O)CNC(C)C)c2o1 (stereo not shown) [Compound No. 8, 2-ethyl-4-acetyl-7-(2-hydroxy-3-isopropylaminopropoxy)benzofuran] | 1.9 µg/kg
21 | CCC(C)N=C(C)c1cc2cccc(OCC(O)CNC(C)CC)c2o1 (stereo not shown) [Compound No. 9, 2-(1-sec.-butyliminoethyl)-7-(2-hydroxy-3-sec.-butylaminopropoxy)benzofuran] | 0.16 µg/kg
22 | CC(=O)c1cc2c(OCC(O)CNC(C)(C)C)cccc2o1 (stereo not shown) [Compound No. 2, 2-acetyl-4-(2-hydroxy-3-tert.-butylaminopropoxy)benzofuran] | 0.92 µg/kg
23 | CC(=O)c1cc2cccc(OCC(O)CNC(C)(C)C)c2o1 (stereo not shown) [Compound No. 4, 2-acetyl-7-(2-hydroxy-3-tert.-butylaminopropoxy)benzofuran] | 0.72 µg/kg

Same assay, conditions: Canis lupus familiaris, iv; anesthetized dogs, femoral vein, isoproterenol 0.3 μg./kg., 50% inhibition; read-out: Inhibition of increase in heart rate ED50

Row | Structure (SMILES) | ED50
24 | CC(=NC(C)C)c1cc2cccc(OCC(O)CNC(C)C)c2o1 (stereo not shown) [Compound No. 1, 2-(1-isopropyliminoethyl)-7-(2-hydroxy-3-isopropylaminopropoxy)benzofuran] | 0.42 µg/kg
25 | CCc1cc2c(C(C)=O)ccc(OCC(O)CNC(C)C)c2o1 (stereo not shown) [Compound No. 8, 2-ethyl-4-acetyl-7-(2-hydroxy-3-isopropylaminopropoxy)benzofuran] | 0.3 µg/kg
26 | CCC(C)N=C(C)c1cc2cccc(OCC(O)CNC(C)CC)c2o1 (stereo not shown) [Compound No. 9, 2-(1-sec.-butyliminoethyl)-7-(2-hydroxy-3-sec.-butylaminopropoxy)benzofuran] | 0.53 µg/kg
27 | CC(=O)c1cc2c(OCC(O)CNC(C)(C)C)cccc2o1 (stereo not shown) [Compound No. 2, 2-acetyl-4-(2-hydroxy-3-tert.-butylaminopropoxy)benzofuran] | 35.2 µg/kg
28 | CC(=O)c1cc2cccc(OCC(O)CNC(C)(C)C)c2o1 (stereo not shown) [Compound No. 4, 2-acetyl-7-(2-hydroxy-3-tert.-butylaminopropoxy)benzofuran] | 3.5 µg/kg

Same assay, conditions: Canis lupus familiaris, iv; anesthetized dogs, femoral vein, isoproterenol 0.3 μg./kg., 50% inhibition; read-out: Inhibition of increase in myocardial contractile force ED50

Row | Structure (SMILES) | ED50
29 | CC(=NC(C)C)c1cc2cccc(OCC(O)CNC(C)C)c2o1 (stereo not shown) [Compound No. 1, 2-(1-isopropyliminoethyl)-7-(2-hydroxy-3-isopropylaminopropoxy)benzofuran] | 0.6 µg/kg
30 | CCc1cc2c(C(C)=O)ccc(OCC(O)CNC(C)C)c2o1 (stereo not shown) [Compound No. 8, 2-ethyl-4-acetyl-7-(2-hydroxy-3-isopropylaminopropoxy)benzofuran] | 6.4 µg/kg
31 | CCC(C)N=C(C)c1cc2cccc(OCC(O)CNC(C)CC)c2o1 (stereo not shown) [Compound No. 9, 2-(1-sec.-butyliminoethyl)-7-(2-hydroxy-3-sec.-butylaminopropoxy)benzofuran] | 0.73 µg/kg
32 | CC(=O)c1cc2c(OCC(O)CNC(C)(C)C)cccc2o1 (stereo not shown) [Compound No. 2, 2-acetyl-4-(2-hydroxy-3-tert.-butylaminopropoxy)benzofuran] | 8.62 µg/kg
33 | CC(=O)c1cc2cccc(OCC(O)CNC(C)(C)C)c2o1 (stereo not shown) [Compound No. 4, 2-acetyl-7-(2-hydroxy-3-tert.-butylaminopropoxy)benzofuran] | 6.33 µg/kg

Same assay, conditions: anesthetized dogs; activity of Propranolol is 1

Row | Structure (SMILES) | Inhibition of decrease in diastolic blood pressure, relative activity | Inhibition of increase in heart rate, relative activity | Inhibition of increase in myocardial contractile force, relative activity
34 | CC(=NC(C)C)c1cc2cccc(OCC(O)CNC(C)C)c2o1 (stereo not shown) [Compound No. 1, 2-(1-isopropyliminoethyl)-7-(2-hydroxy-3-isopropylaminopropoxy)benzofuran] | 3.1 | 25.0 | 15.9
35 | CCc1cc2c(C(C)=O)ccc(OCC(O)CNC(C)C)c2o1 (stereo not shown) [Compound No. 8, 2-ethyl-4-acetyl-7-(2-hydroxy-3-isopropylaminopropoxy)benzofuran] | 0.5 | 35.0 | 1.5
36 | CCC(C)N=C(C)c1cc2cccc(OCC(O)CNC(C)CC)c2o1 (stereo not shown) [Compound No. 9, 2-(1-sec.-butyliminoethyl)-7-(2-hydroxy-3-sec.-butylaminopropoxy)benzofuran] | 6.0 | 20.0 | 13.1
37 | CC(=O)c1cc2c(OCC(O)CNC(C)(C)C)cccc2o1 (stereo not shown) [Compound No. 2, 2-acetyl-4-(2-hydroxy-3-tert.-butylaminopropoxy)benzofuran] | 1.0 | 0.3 | 1.1
38 | CC(=O)c1cc2cccc(OCC(O)CNC(C)(C)C)c2o1 (stereo not shown) [Compound No. 4, 2-acetyl-7-(2-hydroxy-3-tert.-butylaminopropoxy)benzofuran] | 1.3 | 3.0 | 1.5
